According to the NIST ThermoML archive (doi:10.1021/acs.jced.6b00504):
± gives the expanded uncertainty stated by the source.

Experiment: wn = mass fraction of the nth substance listed
Conditions: 100 kPa, Liquid; for viscosity: Falling or rolling sphere viscometry; for mass density: Vibrating tube method

CNCCO [2-(methylamino)ethanol] + O
Conditions	mass density, w1 = 0.075 [kg/m3]	mass density, w1 = 0.15 [kg/m3]	mass density, w1 = 0.225 [kg/m3]	mass density, w1 = 0.3 [kg/m3]	viscosity, w1 = 0.075 [mPa·s]	viscosity, w1 = 0.15 [mPa·s]	viscosity, w1 = 0.225 [mPa·s]	viscosity, w1 = 0.3 [mPa·s]
293.15 K	997.66 ± 5.8	997.93 ± 5.8	999 ± 5.8	1001.69 ± 5.8	1.39 ± 0.012	1.875 ± 0.017	2.702 ± 0.024	3.973 ± 0.036
298.15 K	996.35 ± 5.8	996.35 ± 5.8	997.03 ± 5.8	999.21 ± 5.8	1.217 ± 0.011	1.639 ± 0.015	2.367 ± 0.021	3.335 ± 0.03
303.15 K	994.81 ± 5.8	994.57 ± 5.8	994.9 ± 5.8	996.58 ± 5.8	1.075 ± 0.01	1.426 ± 0.013	2.02 ± 0.018	2.886 ± 0.026
308.15 K	993.06 ± 5.8	992.6 ± 5.8	992.58 ± 5.8	993.8 ± 5.8	0.958 ± 0.009	1.263 ± 0.011	1.744 ± 0.016	2.461 ± 0.022
313.15 K	991.11 ± 5.8	990.45 ± 5.8	990.11 ± 5.8	990.81 ± 5.8	0.859 ± 0.008	1.151 ± 0.01	1.521 ± 0.014	2.157 ± 0.019
318.15 K	988.99 ± 5.8	988.13 ± 5.8	987.49 ± 5.8	987.7 ± 5.8	0.777 ± 0.007	1.022 ± 0.009	1.409 ± 0.013	1.902 ± 0.017
323.15 K	986.7 ± 5.8	985.66 ± 5.8	984.71 ± 5.8	984.5 ± 5.8	0.707 ± 0.006	0.993 ± 0.009	1.299 ± 0.012	1.727 ± 0.016
